# From PubChem BioAssay AID1996
# Details: buffer; pH 7.4; 200.0 µM
row,solubility kinetic [µg/mL],Compound
1,36.7,CN(Cc1nc(-c2ccccc2)no1)C1CCOCC1
2,> 49.1,CCS(=O)(=O)N1CCC(C(=O)Oc2ccccc2OC)CC1
3,47.9,Cc1ccc(C)c(NC(=O)CN(C)C(C)C(=O)N2CC(C)CC(C)C2)c1 (stereo not given)
4,14.6,Cc1ccc(C(=O)OC(C)C(=O)NC2CCCCC2C)s1 (stereo not given)
5,> 50.2,CCCN(C(=O)c1cn(C)c(=O)c2ccccc12)c1ccccc1C
6,2.8,COc1ccc(-c2cnc(N)nc2-c2ccc(OC)cc2)cc1
7,> 43.9,O=C(NCCCN1CCCC1)Nc1ccccc1[N+](=O)[O-]
8,0.8,Cn1c(=NC(=O)COc2ccccc2)sc2ccccc21
9,< 0.6,COc1cc2nc(-c3ccccc3C)oc(=O)c2cc1OC
10,> 41.2,Cc1ccc(NC(=O)C2CC(=O)N(C(C)C)C2)cc1C (stereo not given)
11,> 50.5,CC1CN(C(=O)C2CC(=O)N(c3ccc(Cl)cc3)C2)CC(C)O1 (stereo not given)
12,1,CCOC(=O)c1csc(NC(=O)c2ccc(C#N)cc2)n1
13,44,N#Cc1ccc(-c2nc3cc(Cl)ccc3c(=O)n2O)cc1
14,4.2,COc1ccc(NC(=O)CNc2cc(S(=O)(=O)N3CCOCC3)ccc2N2CCOCC2)c(OC)c1
15,53.5,CCOC(=O)c1cn(C2CC2)c2c(F)c(NCCCN(C)C)c(F)cc2c1=O
16,> 47.7,Cc1ccc(C(C[N+](=O)[O-])c2c(N)n(C)c(=O)n(C)c2=O)cc1 (stereo not given)
17,< 0.8,FC(F)(F)c1cnc(COc2ccc(Cl)cc2Cl)c(Cl)c1
18,> 63.7,CC(Sc1ccccc1F)C(=O)Nc1cccc(S(=O)(=O)N2CCOCC2)c1 (stereo not given)
19,> 51.9,CCOC(=O)c1cc2c(n(-c3ccc(Cl)cc3)c1=O)CCCC2=O
20,> 45.3,COc1ccccc1CNC(=O)CCNC(=O)c1ccco1

row,solubility kinetic [µg/mL],Compound
1,> 37.4,COc1ccc(CCNC(=O)/C=C/C(=O)O)cc1
2,> 36.6,Cc1nnc(SC(C)C#N)n1-c1ccccc1 (stereo not given)
3,> 44,Cn1ccnc1SCC(=O)Nc1ccc([N+](=O)[O-])cn1
4,< 0.7,CC(=O)Oc1ccc(/C=C/c2nc3ccccc3c(=O)o2)cc1
5,> 41.7,CC(NC(=O)c1ccc([N+](=O)[O-])o1)C1CC2CCC1C2 (stereo not given)
6,> 51.4,Cc1onc(-c2ccccc2)c1C(=O)NCCSCc1ccco1
7,1,Cc1ccc(OCC(=O)Nc2c[nH]c(=O)[nH]c2=O)cc1C
8,11,COCC(C)n1c(C)cc(C(=O)COC(=O)c2cc(=O)[nH]c3ccccc23)c1C (stereo not given)
9,< 0.3,Clc1ccc(-c2nc(C3CCCCC3)no2)cc1
10,> 47.9,Cl.O=C(CN1CCCC1)Nc1ccc(Br)cc1
11,> 33.5,CCOC(=O)Cn1cc(C#N)c(=O)[nH]c1=O
12,> 43.6,Cc1cc(OC(C)C(=O)Nc2ccncc2)ccc1Cl (stereo not given)
13,20.7,Cc1ccccc1NC(=O)c1cccnc1
14,14.4,O=C(/C=C/c1ccccc1[N+](=O)[O-])Nc1cccc(S(=O)(=O)NC2=NCCCCC2)c1
15,30,NC(C(=O)O)C(c1ccccc1)C(F)F (stereo not given)
16,> 38.1,COC(=O)CSc1nc2ccc(N)cc2s1
17,2.8,Nc1ncnc(SCc2c(F)cccc2Cl)n1
18,> 42.6,Cc1cc(Br)c2c(c1)C1(OCCO1)C(=O)N2
19,> 38.7,COc1ccc(OC)c(NC(=O)c2cccnc2)c1
20,> 38,Cc1cc(=O)[nH]c(SCC(=O)N2CCCC2)n1

row,solubility kinetic [µg/mL],Compound
1,> 47.1,O=C(CNC(=O)c1cccnc1)N/N=C/c1ccc(O)cc1O
2,3.9,CCOc1ccc(C(=O)n2cc(C(=O)OC)c3ccccc32)cc1OCC
3,> 47.2,Cc1nc(SCc2cccc(C(=O)O)c2)nc2c1CCCC2
4,29.2,CCN(CC)Cc1ccccn1.Cl
5,> 52.1,COc1ccc(NC(=O)CN(C)CC(=O)NCC2CCCCC2)cc1
6,41.4,COc1ccc2c(c1OC)C(=O)N(c1ccc(O)cc1)C2=O
7,5.2,O=C(Nc1nccs1)c1cc(Cl)nc2ccccc12
8,> 41.6,CCCCN1C(=O)C(=O)N(CC(=O)c2ccc[nH]2)C1=O
9,33.1,O=C(OCC(=O)N1CCc2ccccc21)c1ccncc1
10,> 39.4,CCNC(=O)C1CCCN(c2nc(C)cc(C)n2)C1 (stereo not given)
11,> 48,O=C(CN1C(=O)c2ccccc2S1(=O)=O)NCc1ccco1
12,13.1,CCCCc1ccc(NC(=O)NCc2ccccn2)cc1
13,6.6,O=C(COC(=O)C1=COCCO1)Nc1ccc(Br)cc1Br
14,10.7,OCCN(CCO)c1nc(N2CCCCC2)c2nc(N(CCO)CCO)nc(N3CCCCC3)c2n1
15,> 44,CC1(C(=O)O)CCC(C(=O)Nc2ccc(F)cc2)C1(C)C (stereo not given)
16,> 45.1,O=C(c1ccccc1)N1CCCC(C(=O)N2CCCCC2)C1 (stereo not given)
17,19.9,Cc1c(C#N)c2ccccc2n1C
18,9.2,O=S(=O)(Nc1cccc(CCc2ccccn2)c1)c1cc(Cl)ccc1Cl
19,> 52.6,CC1CCCN(C(=O)C2CCN(S(=O)(=O)c3ccccc3)CC2)C1 (stereo not given)

row,Compound,solubility kinetic [µg/mL]
1,CCOP(=O)(OCC)C(O)c1cccnc1 (stereo not given),> 36.8
